Data: the supplement of paper PMC10627819

How the values were obtained:
Test in all cases: fitness (endpoint OD595 vs no drug) (fraction); higher = more growth
S. aureus Newman = tested on: S. aureus Newman
Summary of the method: (§1)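 Bacterial growth was followed in 384-well plates seeded at OD595 0.01, with 30 µl per well, or 55 µl for S. pneumoniae, in TSB, LB Lennox or CY at 37 °C. OD595 was read every 30 min for 14 h, and each reading had the first reading subtracted as background. Fitness is the background-corrected optical density at entry into stationary phase divided by the robust mean of the no-drug control wells. This ratio is capped at 1.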

S. pneumoniae D39V = tested on: S. pneumoniae D39V
Summary of the method: as §1

B. subtilis 168 = tested on: B. subtilis 168
Summary of the method: as §1

O=C(O)[C@H]1/C(=C/CO)O[C@@H]2CC(=O)N21 [Clavulanic acid] + CO/N=C(\C(=O)N[C@@H]1C(=O)N2C(C(=O)O)=C(COC(C)=O)CS[C@H]12)c1csc(N)n1 [Cefotaxime]
fitness, one replicate
Conditions | partner 0.00775 µg/mL | partner 0.0155 µg/mL | partner 0.031 µg/mL | partner 0.0625 µg/mL | partner 0.078 µg/mL | partner 0.125 µg/mL | partner 0.156 µg/mL | partner 0.25 µg/mL | partner 0.312 µg/mL
B. subtilis 168, first compound 1.5 µg/mL | 0.759 | 0.65 | 0.525 | 0.486 | – | 0.286 | – | 0.225 | –
B. subtilis 168, first compound 3 µg/mL | 0.722 | 0.593 | 0.489 | 0.455 | – | 0.322 | – | 0.15 | –
B. subtilis 168, first compound 6 µg/mL | 0.637 | 0.467 | 0.384 | 0.391 | – | 0.258 | – | 0.185 | –
S. aureus Newman, first compound 0.03125 µg/mL | – | – | – | – | 0.994 | – | 0.8 | – | 0.807
S. aureus Newman, first compound 0.0625 µg/mL | – | – | – | – | 0.898 | – | 0.741 | – | 0.683
S. aureus Newman, first compound 0.125 µg/mL | – | – | – | – | 0.822 | – | 0.703 | – | 0.709

Conditions | fitness
B. subtilis 168, first compound 1.5 µg/mL, partner 0.5 µg/mL | 0.232
B. subtilis 168, first compound 1.5 µg/mL, partner 1 µg/mL | 0.154
B. subtilis 168, first compound 1.5 µg/mL, partner 2 µg/mL | 0.0721
B. subtilis 168, first compound 3 µg/mL, partner 0.5 µg/mL | 0.218
B. subtilis 168, first compound 3 µg/mL, partner 1 µg/mL | 0.118
B. subtilis 168, first compound 3 µg/mL, partner 2 µg/mL | 0.0681
B. subtilis 168, first compound 6 µg/mL, partner 0.5 µg/mL | 0.14
B. subtilis 168, first compound 6 µg/mL, partner 1 µg/mL | 0.0836
B. subtilis 168, first compound 6 µg/mL, partner 2 µg/mL | 0.0583
S. pneumoniae D39V, first compound 0.5 µg/mL, partner 0.0018 µg/mL | 0.99
S. pneumoniae D39V, first compound 0.5 µg/mL, partner 0.0035 µg/mL | 0.966
S. pneumoniae D39V, first compound 1 µg/mL, partner 0.0018 µg/mL | 0.971
S. pneumoniae D39V, first compound 1 µg/mL, partner 0.0035 µg/mL | 0.927
S. pneumoniae D39V, first compound 1 µg/mL, partner 0.007 µg/mL | 0.789
S. pneumoniae D39V, first compound 2 µg/mL, partner 0.0018 µg/mL | 0.844
S. pneumoniae D39V, first compound 2 µg/mL, partner 0.0035 µg/mL | 0.824
S. pneumoniae D39V, first compound 2 µg/mL, partner 0.007 µg/mL | 0.582

O=C(O)[C@H]1/C(=C/CO)O[C@@H]2CC(=O)N21 [Clavulanic acid] + CC1=C\[C@@H](O)CC(=O)Cc2nc(co2)C(=O)N2CCC=C2C(=O)O[C@H](C(C)C)[C@H](C)/C=C/C(=O)NC\C=C\1 [Virginiamycin M1]
fitness, one replicate
Conditions | first compound 0.03125 µg/mL | first compound 0.0625 µg/mL | first compound 0.125 µg/mL | first compound 0.5 µg/mL | first compound 1 µg/mL | first compound 2 µg/mL
S. aureus Newman, partner 0.0625 µg/mL | 0.925 | 0.984 | 0.908 | – | – | –
S. aureus Newman, partner 0.125 µg/mL | 0.917 | 0.977 | 0.949 | – | – | –
S. aureus Newman, partner 0.25 µg/mL | 0.971 | ≥ 1 | 0.975 | – | – | –
S. pneumoniae D39V, partner 0.15 µg/mL | – | – | – | ≥ 1 | 0.929 | 0.868
S. pneumoniae D39V, partner 0.3 µg/mL | – | – | – | 0.875 | 0.87 | 0.802

fitness
Conditions | first compound 0.5 µg/mL | first compound 1 µg/mL | first compound 1.5 µg/mL | first compound 2 µg/mL | first compound 3 µg/mL | first compound 6 µg/mL
B. subtilis 168, partner 0.0625 µg/mL | – | – | 0.935 | – | 0.877 | 0.809
B. subtilis 168, partner 0.125 µg/mL | – | – | 0.917 | – | 0.895 | 0.7
B. subtilis 168, partner 0.25 µg/mL | – | – | 0.927 | – | 0.841 | 0.822
S. pneumoniae D39V, partner 0.5 µg/mL | 0.991 | 0.935 | – | 0.918 | – | –
S. pneumoniae D39V, partner 1 µg/mL | ≥ 1 | 0.958 | – | 0.867 | – | –
S. pneumoniae D39V, partner 2 µg/mL | 0.957 | 0.904 | – | 0.796 | – | –

O=C(O)[C@H]1/C(=C/CO)O[C@@H]2CC(=O)N21 [Clavulanic acid] + CN(C)c1cc(NC(=O)CNC(C)(C)C)c(O)c2c1C[C@H]1C[C@H]3[C@H](N(C)C)C(O)=C(C(N)=O)C(=O)[C@@]3(O)C(O)=C1C2=O [Tigecycline]
fitness, one replicate
Conditions | first compound 0.03125 µg/mL | first compound 0.0625 µg/mL | first compound 0.125 µg/mL | first compound 1.5 µg/mL | first compound 3 µg/mL | first compound 6 µg/mL
B. subtilis 168, partner 0.125 µg/mL | – | – | – | 0.956 | 0.952 | 0.814
B. subtilis 168, partner 0.25 µg/mL | – | – | – | 0.863 | 0.928 | 0.821
B. subtilis 168, partner 0.5 µg/mL | – | – | – | 0.866 | 0.865 | 0.765
S. aureus Newman, partner 0.039 µg/mL | 0.952 | 0.987 | 0.919 | – | – | –
S. aureus Newman, partner 0.078 µg/mL | 0.933 | 1 | 0.884 | – | – | –
S. aureus Newman, partner 0.156 µg/mL | 0.96 | 0.971 | 0.898 | – | – | –

fitness
Conditions | partner 0.039 µg/mL | partner 0.078 µg/mL | partner 0.156 µg/mL | partner 0.325 µg/mL | partner 0.65 µg/mL | partner 1.3 µg/mL | partner 2.6 µg/mL
B. subtilis 168, first compound 1.5 µg/mL | 0.98 | 0.919 | 0.884 | – | – | – | –
B. subtilis 168, first compound 3 µg/mL | 0.888 | 0.899 | 0.889 | – | – | – | –
B. subtilis 168, first compound 6 µg/mL | 0.82 | 0.796 | 0.79 | – | – | – | –
S. pneumoniae D39V, first compound 0.5 µg/mL | – | – | – | ≥ 1 | 0.965 | 0.931 | 0.866
S. pneumoniae D39V, first compound 1 µg/mL | – | – | – | 0.908 | 0.889 | 0.877 | 0.814
S. pneumoniae D39V, first compound 2 µg/mL | – | – | – | 0.717 | 0.782 | 0.815 | 0.755

O=C(O)[C@H]1/C(=C/CO)O[C@@H]2CC(=O)N21 [Clavulanic acid] + Cc1ncc([N+](=O)[O-])n1CCO [Metronidazole]
fitness, S. aureus Newman, one replicate
Conditions | first compound 0.03125 µg/mL | first compound 0.0625 µg/mL | first compound 0.125 µg/mL
partner 0.625 µg/mL | 0.976 | 0.94 | 0.85
partner 1.25 µg/mL | 0.96 | ≥ 1 | 0.891
partner 2.5 µg/mL | 0.996 | ≥ 1 | 0.852

fitness
Conditions | partner 0.625 µg/mL | partner 1.073 µg/mL | partner 1.25 µg/mL | partner 2.145 µg/mL | partner 2.5 µg/mL | partner 4.29 µg/mL | partner 5 µg/mL
B. subtilis 168, first compound 1.5 µg/mL | 0.93 | – | 0.97 | – | 0.976 | – | –
B. subtilis 168, first compound 3 µg/mL | 0.909 | – | 0.89 | – | 0.886 | – | –
B. subtilis 168, first compound 6 µg/mL | 0.794 | – | 0.762 | – | 0.772 | – | –
S. pneumoniae D39V, first compound 0.5 µg/mL | – | 0.946 | ≥ 1 | 0.946 | ≥ 1 | 0.858 | ≥ 1
S. pneumoniae D39V, first compound 1 µg/mL | – | 0.931 | 0.957 | 0.926 | 0.971 | 0.89 | 0.959
S. pneumoniae D39V, first compound 2 µg/mL | – | 0.839 | 0.801 | 0.779 | 0.828 | 0.829 | 0.805

CNC(C)C1CCC(N)C(OC2C(N)CC(N)C(OC3OCC(C)(O)C(NC)C3O)C2O)O1 (configuration not stated) [Gentamicin] + CC1=C(C(=O)O)N2C(=O)[C@@H](NC(=O)[C@H](N)c3ccccc3)[C@H]2SC1 [Cephalexin]
fitness, one replicate, main component drawn
Conditions | partner 0.125 µg/mL | partner 0.25 µg/mL | partner 0.5 µg/mL | partner 1 µg/mL
B. subtilis 168, first compound 0.0625 µg/mL | – | – | – | 0.986
B. subtilis 168, first compound 0.125 µg/mL | – | – | – | 0.941
B. subtilis 168, first compound 0.25 µg/mL | – | – | – | 0.418
S. aureus Newman, first compound 0.375 µg/mL | – | ≥ 1 | ≥ 1 | ≥ 1
S. aureus Newman, first compound 0.75 µg/mL | – | ≥ 1 | ≥ 1 | ≥ 1
S. aureus Newman, first compound 1.5 µg/mL | – | 0.986 | 0.877 | 0.963
S. pneumoniae D39V, first compound 2 µg/mL | 0.962 | 0.96 | 0.947 | –
S. pneumoniae D39V, first compound 4 µg/mL | 0.993 | 0.955 | ≥ 1 | –
S. pneumoniae D39V, first compound 8 µg/mL | 0.93 | 0.965 | 0.956 | –

main component drawn
Conditions | fitness
B. subtilis 168, first compound 0.0625 µg/mL, partner 0.125 µg/mL | 0.852
B. subtilis 168, first compound 0.0625 µg/mL, partner 0.25 µg/mL | 0.938
B. subtilis 168, first compound 0.0625 µg/mL, partner 0.5 µg/mL | 0.882
B. subtilis 168, first compound 0.125 µg/mL, partner 0.125 µg/mL | 0.0869
B. subtilis 168, first compound 0.25 µg/mL, partner 0.125 µg/mL | 0.0552
B. subtilis 168, first compound 0.25 µg/mL, partner 0.25 µg/mL | 0.0555
B. subtilis 168, first compound 0.25 µg/mL, partner 0.5 µg/mL | 0.0535
S. aureus Newman, first compound 0.5 µg/mL, partner 0.25 µg/mL | 0.968
S. aureus Newman, first compound 0.5 µg/mL, partner 0.5 µg/mL | 0.964
S. aureus Newman, first compound 0.5 µg/mL, partner 1 µg/mL | 0.922
S. aureus Newman, first compound 1 µg/mL, partner 0.25 µg/mL | ≥ 1
S. aureus Newman, first compound 1 µg/mL, partner 0.5 µg/mL | 0.986
S. aureus Newman, first compound 1 µg/mL, partner 1 µg/mL | ≥ 1
S. aureus Newman, first compound 2 µg/mL, partner 0.25 µg/mL | 0.993
S. aureus Newman, first compound 2 µg/mL, partner 0.5 µg/mL | ≥ 1
S. aureus Newman, first compound 2 µg/mL, partner 1 µg/mL | ≥ 1
S. pneumoniae D39V, first compound 2 µg/mL, partner 2 µg/mL | 0.0158
S. pneumoniae D39V, first compound 2 µg/mL, partner 4 µg/mL | 0.0234
S. pneumoniae D39V, first compound 4 µg/mL, partner 1 µg/mL | 0.424
S. pneumoniae D39V, first compound 4 µg/mL, partner 2 µg/mL | 0.0331
S. pneumoniae D39V, first compound 4 µg/mL, partner 4 µg/mL | 0.026
S. pneumoniae D39V, first compound 8 µg/mL, partner 1 µg/mL | 0.401
S. pneumoniae D39V, first compound 8 µg/mL, partner 2 µg/mL | 0.0415
S. pneumoniae D39V, first compound 8 µg/mL, partner 4 µg/mL | 0.0404
